Measured values: patent US20080188502A1, “New Compounds I” (AstraZeneca AB, priority 2006, published 2008)
pKi: −log10 of the molar value. Counter-ions that a name gives are not always drawn.

Target: T1, recombinant human GSK3β (Homo sapiens, UniProt P49841)
T1 construct: purchased Dundee University, UK
Assay: GSK3β Scintillation Proximity Assay (ATP competition)
Assay type: biochemical
Settings: inhibition constants calculated with Km of ATP for GSK3β of 20 μM; 1 μM ATP, 1 μM biotinylated peptide substrate
Protocol: Determination of ATP Competition in Scintillation Proximity GSK3β Assay.
GSK3β Scintillation Proximity Assay.
The competition experiments were carried out in duplicate with 10 different concentrations of the inhibitors in clear-bottom microtiter plates (Wallac, Finland). A biotinylated peptide substrate, Biotin-Ala-Ala-Glu-Glu-Leu-Asp-Ser-Arg-Ala-Gly-Ser(PO3H2)-Pro-Gln-Leu (AstraZeneca, Lund), was added at a final concentration of 1 μM in an assay buffer containing 1 mU recombinant human GSK3β (Dundee University, UK), 12 mM morpholinepropanesulfonic acid (MOPS), pH 7.0, 0.3 mM EDTA, 0.01% β-mercaptoethanol, 0.004% Brij 35 (a […] detergent), 0.5% glycerol and 0.5 μg BSA/25 μl. The reaction was initiated by the addition of 0.04 μCi [γ-^33P]ATP (Amersham, UK) and unlabelled ATP at a final concentration of 1 μM and assay volume of 25 μl. After incubation for 20 minutes at room temperature, each reaction was terminated by the addition of 25 μl stop solution containing 5 mM EDTA, 50 μM ATP, 0.1% Triton X-100 and 0.25 mg streptavidin coated Scintillation Proximity Assay (SPA) beads (Amersham, UK). After 6 hours the radioactivity was determined in a liquid scintillation counter (1450 MicroBeta Trilux, Wallac). The inhibition curves were analysed by non-linear regression using GraphPad Prism, USA. The Km value of ATP for GSK3β, used to calculate the inhibition constants (Ki) of the various compounds, was 20 μM.

T1 sequence (P49841 whole entry): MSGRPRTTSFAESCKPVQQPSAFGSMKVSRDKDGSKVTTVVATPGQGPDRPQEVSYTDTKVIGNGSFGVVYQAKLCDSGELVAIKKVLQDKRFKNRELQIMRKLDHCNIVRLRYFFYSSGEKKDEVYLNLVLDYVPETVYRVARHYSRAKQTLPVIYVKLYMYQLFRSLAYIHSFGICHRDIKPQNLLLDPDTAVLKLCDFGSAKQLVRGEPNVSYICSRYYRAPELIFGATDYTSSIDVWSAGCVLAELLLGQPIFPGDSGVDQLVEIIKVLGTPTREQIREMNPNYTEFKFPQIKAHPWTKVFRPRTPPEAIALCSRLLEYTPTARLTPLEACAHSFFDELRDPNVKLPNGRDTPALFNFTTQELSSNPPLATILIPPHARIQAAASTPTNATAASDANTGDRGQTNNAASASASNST

pKi	SMILES
7.54	CCCN(C(=O)c1ccc(Nc2ncc(F)c(-c3cnc(C)n3C3CCOCC3)n2)cn1)C(C)CC (stereo not drawn) [Example 12, N-Butan-2-yl-5-[[5-fluoro-4-[2-methyl-3-(oxan-4-yl)imidazol-4-yl]pyrimidin-2-yl]amino]-N-propyl-pyridine-2-carboxamide]
7.52	Cc1ncc(-c2nc(Nc3ccc(S(=O)(=O)N4CCN(C)CC4)nc3)ncc2F)n1C1CCOCC1 [Example 58, {5-Fluoro-4-[2-methyl-3-(tetrahydro-pyran-4-yl)-3H-imidazol-4-yl]-pyrimidin-2-yl}-[6-(4-methyl-piperazine-1-sulfonyl)-pyridin-3-yl]-amine]
7.54	CCN(CC)C(=O)c1ccc(Nc2ncc(F)c(-c3cnc(C)n3C3CCOCC3)n2)cn1 [Example 38, N,N-Diethyl-5-[[5-fluoro-4-[2-methyl-3-(oxan-4-yl)imidazol-4-yl]pyrimidin-2-yl]amino]pyridine-2-carboxamide]
7.40	Cc1ncc(-c2nc(Nc3ccc(S(C)(=O)=O)nc3)ncc2F)n1C1CCOCC1 [Example 2, 5-Fluoro-N-[6-(methylsulfonyl)pyridin-3-yl]-4-[2-methyl-1-(tetrahydro-2H-pyran-4-yl)-1H-imidazol-5-yl]pyrimidin-2-amine]
7.17	Cc1ncc(-c2nc(Nc3ccc(C(=O)N(C(C)C)C(C)C)nc3)ncc2F)n1C1CCOCC1 [Example 22, 5-[[5-Fluoro-4-[2-methyl-3-(oxan-4-yl)imidazol-4-yl]pyrimidin-2-yl]amino]-N,N-dipropan-2-yl-pyridine-2-carboxamide]
7.70	CCCN(CC1CC1)C(=O)c1ccc(Nc2ncc(F)c(-c3cnc(C)n3C3CCOCC3)n2)cn1 [Example 35]
7.35	CCOc1ccc(Nc2ncc(F)c(-c3cnc(C)n3C3CCOCC3)n2)cn1 [Example 10, (6-Ethoxy-pyridin-3-yl)-{5-fluoro-4-[2-methyl-3-(tetrahydro-pyran-4-yl)-3H-imidazol-4-yl]-pyrimidin-2-yl}-amine]
7.80	Cc1ncc(-c2nc(Nc3ccc(C(=O)N4CCCC(C)C4)nc3)ncc2F)n1C1CCOCC1 (stereo not drawn) [Example 14, [5-[[5-Fluoro-4-[2-methyl-3-(oxan-4-yl)imidazol-4-yl]pyrimidin-2-yl]amino]pyridin-2-yl]-(3-methyl-1-piperidyl)methanone]
7.77	Cc1ncc(-c2nc(Nc3ccc(C(=O)N(Cc4ccccc4)C(C)C)nc3)ncc2F)n1C1CCOCC1 [Example 30, N-Benzyl-5-[[5-fluoro-4-[2-methyl-3-(oxan-4-yl)imidazol-4-yl]pyrimidin-2-yl]amino]-N-propan-2-yl-pyridine-2-carboxamide]
7.68	CCS(=O)(=O)c1ccc(Nc2ncc(F)c(-c3cnc(C)n3C3CCOCC3)n2)cn1 [Example 51, (6-Ethanesulfonyl-pyridin-3-yl)-{5-fluoro-4-[2-methyl-3-(tetrahydro-pyran-4-yl)-3H-imidazol-4-yl]-pyrimidin-2-yl}-amine]
7.47	Cc1ncc(-c2nc(Nc3ccc(C(=O)N4CCC(F)(F)CC4)nc3)ncc2F)n1C1CCOCC1 [Example 29, (4,4-Difluoro-1-piperidyl)-[5-[[5-fluoro-4-[2-methyl-3-(oxan-4-yl)imidazol-4-yl]pyrimidin-2-yl]amino]pyridin-2-yl]methanone]
7.15	Cc1ncc(-c2nc(Nc3ccc(C(=O)N4CCC4)nc3)ncc2F)n1C1CCOCC1 [Example 5, N-[6-(Azetidin-1-ylcarbonyl)pyridin-3-yl]-5-fluoro-4-[2-methyl-1-(tetrahydro-2H-pyran-4-yl)-1H-imidazol-5-yl]pyrimidin-2-amine]
7.48	Cc1ncc(-c2nc(Nc3ccc(C(=O)N4CCC(F)CC4)nc3)ncc2F)n1C1CCOCC1 [Example 32, [5-[[5-Fluoro-4-[2-methyl-3-(oxan-4-yl)imidazol-4-yl]pyrimidin-2-yl]amino]pyridin-2-yl]-(4-fluoro-1-piperidyl)methanone]
7.26	CN1CCN(C(=O)c2ncc(Nc3ncc(F)c(-c4cnc(C(F)(F)F)n4C)n3)cc2Cl)CC1 [Example 44, [3-Chloro-5-[[5-fluoro-4-[3-methyl-2-(trifluoromethyl)imidazol-4-yl]pyrimidin-2-yl]amino]pyridin-2-yl]-(4-methylpiperazin-1-yl)methanone]
7.39	Cc1ncc(-c2nc(Nc3ccc(C(=O)N4C(C)CCCC4C)nc3)ncc2F)n1C1CCOCC1 (stereo not drawn) [Example 23, (2,6-Dimethyl-1-piperidyl)-[5-[[5-fluoro-4-[2-methyl-3-(oxan-4-yl)imidazol-4-yl]pyrimidin-2-yl]amino]pyridin-2-yl]methanone]
7.92	Cc1ncc(-c2nc(Nc3ccc(C(=O)N(C)CC(C)C)nc3)ncc2F)n1C1CCOCC1 [Example 31, 5-[[5-Fluoro-4-[2-methyl-3-(oxan-4-yl)imidazol-4-yl]pyrimidin-2-yl]amino]-N-methyl-N-(2-methylpropyl)pyridine-2-carboxamide]
7.80	Cc1ncc(-c2nc(Nc3cnc(C(=O)N4CCC4)c(Cl)c3)ncc2F)n1C [Example 48, N-[6-(Azetidin-1-ylcarbonyl)-5-chloropyridin-3-yl]-4-(1,2-dimethyl-1H-imidazol-5-yl)-5-fluoropyrimidin-2-amine]
6.33	Cc1ncc(-c2nc(Nc3ccc(S(C)(=O)=O)cn3)ncc2F)n1C1CCOCC1 [Example 1, 5-Fluoro-N-[5-(methylsulfonyl)pyridin-2-yl]-4-[2-methyl-1-(tetrahydro-2H-pyran-4-yl)-1H-imidazol-5-yl]pyrimidin-2-amine hydrochloride]
7.22	COc1ncc(Nc2ncc(F)c(-c3cnc(C)n3C3CCOCC3)n2)cn1 [Example 11, {5-Fluoro-4-[2-methyl-3-(tetrahydro-pyran-4-yl)-3H-imidazol-4-yl]-pyrimidin-2-yl}-(2-methoxy-pyrimidin-5-yl)-amine]
7.72	Cc1ncc(-c2nc(Nc3ccc(C(=O)N4CCN(Cc5ccccc5)CC4)nc3)ncc2F)n1C1CCOCC1 [Example 28, (4-Benzylpiperazin-1-yl)-[5-[[5-fluoro-4-[2-methyl-3-(oxan-4-yl)imidazol-4-yl]pyrimidin-2-yl]amino]pyridin-2-yl]methanone]
7.60	CCN(C(=O)c1ccc(Nc2ncc(F)c(-c3cnc(C)n3C3CCOCC3)n2)cn1)C(C)C [Example 19, N-Ethyl-5-[[5-fluoro-4-[2-methyl-3-(oxan-4-yl)imidazol-4-yl]pyrimidin-2-yl]amino]-N-propan-2-yl-pyridine-2-carboxamide]
7.55	Cc1ncc(-c2nc(Nc3ccc(C(=O)N4CCC(C)CC4)nc3)ncc2F)n1C1CCOCC1 [Example 27, [5-[[5-Fluoro-4-[2-methyl-3-(oxan-4-yl)imidazol-4-yl]pyrimidin-2-yl]amino]pyridin-2-yl]-(4-methyl-1-piperidyl)methanone]
7.33	CCCCN1CCN(C(=O)c2ccc(Nc3ncc(F)c(-c4cnc(C)n4C4CCOCC4)n3)cn2)CC1 [Example 18, (4-Butylpiperazin-1-yl)-[5-[[5-fluoro-4-[2-methyl-3-(oxan-4-yl)imidazol-4-yl]pyrimidin-2-yl]amino]pyridin-2-yl]methanone]
7.55	COC1CCN(C(=O)c2ccc(Nc3ncc(F)c(-c4cnc(C)n4C4CCOCC4)n3)cn2)CC1 [Example 25, [5-[[5-Fluoro-4-[2-methyl-3-(oxan-4-yl)imidazol-4-yl]pyrimidin-2-yl]amino]pyridin-2-yl]-(4-methoxy-1-piperidyl)methanone]
